Data: patent US7153852B2, “Indole compounds, process for producing the same and drugs containing the same as the active ingredient” (Ono Pharmaceutical Co., Ltd., priority 2001, dated 2006)

Molecular target: T1, mouse DP receptors (Mus musculus, UniProt P70263)
T1 construct: expressed in transfected cells; host or cells: CHO cells (membrane preparation)
T1 sequence (P70263 1-357): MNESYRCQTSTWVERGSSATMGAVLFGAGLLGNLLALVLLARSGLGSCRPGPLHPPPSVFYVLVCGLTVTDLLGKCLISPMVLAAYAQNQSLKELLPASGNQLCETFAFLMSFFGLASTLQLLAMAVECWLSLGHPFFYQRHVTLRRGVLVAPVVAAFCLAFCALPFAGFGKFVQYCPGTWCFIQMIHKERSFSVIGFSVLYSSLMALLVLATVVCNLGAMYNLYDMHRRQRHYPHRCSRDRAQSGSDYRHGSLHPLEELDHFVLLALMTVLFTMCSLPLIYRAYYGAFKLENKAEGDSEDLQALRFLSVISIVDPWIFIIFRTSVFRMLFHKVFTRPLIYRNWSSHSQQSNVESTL
Experiment: Receptor binding test using prostanoid DP receptor-expressing cells (3H-PGD2 binding inhibition)
Conditions: membrane of CHO cells expressing mouse DP receptors; 3H-PGD2 2.5 nmol/L; Ki=IC50/(1+([L]*/Kd))
Procedure: (i) Receptor Binding Test Using Prostanoid DP Receptor-Expressing Cells
CHO cells expressing mouse DP receptors were prepared according to the method of Hirata et al. (Proc. Natl. Acad. Sci., 91, 11192–11196 (1994)) and used as a membrane standard.
A reaction solution (200 μL) containing the prepared membrane standard (30–166 μg) and ^3H-PGD2 was incubated at room temperature for 20 minutes. The reaction was stopped with an ice-cold buffer (1 mL) and the binding ^3H-PGD2 was trapped in on a glass filter by immediate aspiration-filtration under a reduced pressure, and its binding radioactivity was measured using a liquid scintillation counter.
Kd value and Bmax value were obtained from Scatchard plots (Ann. N. Y. Acad. Sci., 51, 660 (1949)]. Non-specific binding was obtained as the binding radioactivity in the presence of unlabeled PGD2 at an excess amount (10 μmol/L). 3H-PGD2 binding inhibition by the compound of the present invention was measured by adding ^3H-PGD2 (2.5 nmol/L) and the compound of the present invention as various concentrations. Also, the following buffers were used for the reactions.
The dissociation constant (Ki) (μmol/L) of each compound was obtained by the following equation. Ki=IC50/(1+([L]*/Kd)) • [L*]: Concentration of radioligand

With `Cc1cc2c(CC(=O)O)cccc2n1C(=O)c1ccc(OC[C@H]2Cc3ccccc3O2)cc1` [2(16), 1-(4-((2R)-2,3-dihydrobenzofuran-2-ylmethoxy)benzoyl)-2-methyl-1H-indol-4-ylacetic acid] the Ki was 31 nM.
